IC50 and CC50 data for 50 compounds are collected here from patent US10576059B2, “Substituted phenylpyrrolecarboxamides with therapeutic activity in HIV” (New York Blood Center, Inc., priority 2014, dated 2020).

In the first series the test system is panel of HIV-1 ENV-pseudoviruses (subtype A, A/D, A2/D, A/E, A/G, B, C and D). The series is described as follows: microbe, parasite or virus in culture. The following applies: Human immunodeficiency virus 1, TZM-bl, read-out: IC50 (μM) ± S.D., subtype B, ENV B41. It is filed as cell-based.
On to `Cc1nc(C(CN)NC(=O)c2ccc(-c3ccc(Cl)cc3)[nH]2)sc1CO` (single isomer, unassigned) [Compound 40], for which the IC50 turned out to be 0.28 ± 0.03 µM.

Staying with this series, now noted: Human immunodeficiency virus 1, TZM-bl, read-out: IC50 (μM) ± S.D., subtype B, NIH # 11024, ENV AC10.0, clone 29.
With `Cc1nc(C(CN)NC(=O)c2ccc(-c3ccc(Cl)cc3)[nH]2)sc1CO` (single isomer, unassigned) [Compound 40], the IC50 was determined as 0.29 ± 0.03 µM.

The same series, now with this note: Human immunodeficiency virus 1, TZM-bl, read-out: IC50 (μM) ± S.D., subtype B, NIH # 11578, ENV pWEAUd15.410.5017.
As for `Cc1nc(C(CN)NC(=O)c2ccc(-c3ccc(Cl)cc3)[nH]2)sc1CO` (single isomer, unassigned) [Compound 40], the half-maximal inhibitory concentration (IC50) came to 0.28 ± 0.04 µM.

Still in this series, the particulars now being: subtype A, ENV BG505-T332N; read-out: IC50 (μM) ± S.D.
As for `Cc1nc(C(CN)NC(=O)c2ccc(-c3ccc(Cl)cc3)[nH]2)sc1CO` (single isomer, unassigned) [Compound 40], the IC50 came to 0.33 ± 0.04 µM.

A further series relates to PBMC. The series is described as follows: Cytotoxicity in PBMC (XTT). The series is classed as cell-based. The following applies: 7 days. How it is done: For the PBMC toxicity assay we used 5×10^5 cells/ml and the cytotoxicity of the compounds was measured after 7 days of incubation as previously reported^8. Following the addition of XTT the soluble intracellular formazan was quantitated colorimetrically at 450 nm 4 h later. The percent of cytotoxicity and the CC50 values were calculated as above. (See Table 4)
Consider `Cc1nc(C(NC(=O)C(=O)Nc2ccc(Cl)cc2)C2CCCCN2)sc1CO` (stereo not drawn) [NBD-09027], for which the CC50 was above 160 µM.

The subject of the next series is HIV-1 pseudovirus pseudotyped with HXB2 Env. The series is described as follows: microbe, parasite or virus in culture. It is filed as cell-based. The following applies: Human immunodeficiency virus 1, HXB2, TZM-bl, TZM-bl cells, HIV-1 pseudovirus with HXB2 Env.
On to `Cc1nc(C(NC(=O)c2ccc(-c3ccc(Cl)c(F)c3)[nH]2)C2CCCCN2)sc1CO` (single isomer, unassigned) [Compound 20], for which half-maximal inhibition (IC50) required 3 ± 0.4 µM.
As for `Cc1ccc(-c2ccc(C(=O)NC(c3nc(C)c(CO)s3)C3CCCCN3)[nH]2)cc1F` (single isomer, unassigned) [Compound 22], half-maximal inhibition (IC50) required 2.7 ± 0.2 µM.
Turning to `Cc1ccc(-c2ccc(C(=O)NC(c3nc(C)c(CCO)s3)C3CCCCN3)[nH]2)cc1F` (single isomer, unassigned) [Compound 24], the IC50 turned out to be 10.6 ± 0.1 µM.
`Cc1nc(C(NC(=O)c2ccc(-c3ccc(Cl)c(F)c3)[nH]2)C2CCCCN2)sc1CCO` (single isomer, unassigned) [Compound 26] registered an IC50 of 7.5 ± 0.2 µM.
`Cc1nc(C(NC(=O)c2ccc(-c3ccc(Cl)cc3)[nH]2)C2CCCCN2)sc1CCO` (single isomer, unassigned) [Compound 28]: half-maximal inhibition (IC50) was put at 8.9 ± 0.2 µM.
Take `Cc1ccc(-c2ccc(C(=O)NC(c3nc(C)c(CCCO)s3)C3CCCCN3)[nH]2)cc1F` (single isomer, unassigned) [Compound 30]: 11.2 ± 0.7 µM corresponded to half-maximal inhibition (IC50).
For `Cc1nc(C(NC(=O)c2ccc(-c3ccc(Cl)c(F)c3)[nH]2)C2CCCCN2)sc1CCCO` (single isomer, unassigned) [Compound 31], inhibition was half-maximal at 5.1 ± 0.7 µM (IC50).
On the same count and under the same terms, in the case of `Cc1nc(C(NC(=O)c2ccc(-c3ccc(Cl)cc3)[nH]2)C2CCCCN2)[nH]c1CO` (single isomer, unassigned) [Compound 33] it was 14 ± 0.1 µM; in that of `Cc1nc(C(NC(=O)c2ccc(-c3ccc(Cl)c(F)c3)[nH]2)C2CCCCN2)[nH]c1CO` (single isomer, unassigned) [Compound 35], 9 ± 0.2 µM.
Compound `Cc1ccc(-c2ccc(C(=O)NC(CN)c3nc(C)c(CO)s3)[nH]2)cc1F` (single isomer, unassigned) [Compound 43] displayed an IC50 of 1.7 ± 0.4 µM.
`Cc1nc(C(CNC(=N)N)NC(=O)c2ccc(-c3ccc(Cl)cc3)[nH]2)sc1CO` (single isomer, unassigned) [Compound 45] came in with an IC50 above 37 µM.
Still for that read-out and setting: in the case of `Cc1nc(C(CNC(=N)N)NC(=O)c2ccc(-c3ccc(Cl)c(F)c3)[nH]2)sc1CO` (single isomer, unassigned) [Compound 48] it was above 27 µM; in that of `Cc1ccc(-c2ccc(C(=O)NC(CNC(=N)N)c3nc(C)c(CO)s3)[nH]2)cc1F` (single isomer, unassigned) [Compound 49], above 28 µM.
Compound `Cc1nc(C(CN)NC(=O)c2ccc(-c3ccc(Cl)c(F)c3)[nH]2)sc1CO` (single isomer, unassigned) [Compound 51] had an IC50 of 1.4 ± 0.5 µM.
The same measure, in the same setting: in the case of `O=C(NC(c1ccccc1)c1ccc[nH]1)c1ccc(-c2ccc(Cl)cc2)[nH]1` (stereo not drawn) [Compound 1] it was 16.4 ± 1.5 µM; in that of `Nc1nc(CNC(=O)c2ccc(-c3ccc(Cl)cc3)[nH]2)n[nH]1` [Compound 2], above 63 µM; in that of `N=C(N)Nc1ccc(CC(NC(=O)c2ccc(-c3ccc(Cl)cc3)[nH]2)C(=O)N2CCOCC2)cc1` (stereo not drawn) [Compound 3], above 36 µM.
In turn, `N=C(N)NCCCC(NC(=O)c1ccc(-c2ccc(Cl)cc2)[nH]1)C(=O)NCCO` (stereo not drawn) [Compound 4] displayed an IC50 above 44 µM.
As for `N=C(N)NCCCC(NC(=O)c1ccc(-c2ccccc2)[nH]1)C(=O)NCCO` (stereo not drawn) [Compound 5], the IC50 is above 47 µM.
Regarding `CS(=O)(=O)NCCNC(=O)C(CCCNC(=N)N)NC(=O)c1ccc(-c2ccc(Cl)cc2)[nH]1` (stereo not drawn) [Compound 6], the IC50 is above 37 µM.
On to `CS(=O)(=O)NCCNC(=O)C(CCCNC(=N)N)NC(=O)c1ccc(-c2ccccc2)[nH]1` (stereo not drawn) [Compound 7], for which the IC50 was above 43 µM.
As for `CN1CCN(NC(=O)C(CCCNC(=N)N)NC(=O)c2ccc(-c3ccc(Cl)cc3)[nH]2)CC1` (stereo not drawn) [Compound 8], the IC50 is above 42 µM.
`N=C(N)NCCCC(NC(=O)c1ccc(-c2ccc(Cl)cc2)[nH]1)C(=O)NN1CCOCC1` (stereo not drawn) [Compound 9] had an IC50 above 40 µM.
`N=C(N)NCCCC(NC(=O)c1ccc(-c2ccccc2)[nH]1)C(=O)NN1CCOCC1` (stereo not drawn) [Compound 10] yielded an IC50 above 43 µM.
Same read-out and setting: the same measure for `Cc1n[nH]c(C)c1CNC(=O)c1ccc(-c2ccc(Cl)cc2)[nH]1` [Compound 11]: around 60 µM; for `Cc1nccn1Cc1ccc(CNC(=O)c2ccc(-c3ccc(Cl)cc3)[nH]2)o1` [Compound 12]: 14.1 ± 1.3 µM; for `CCN(CC)Cc1ccc(OC)c(CNC(=O)c2ccc(-c3ccc(Cl)cc3)[nH]2)c1` [Compound 13]: 4.3 ± 0.1 µM.
Take `NS(=O)(=O)c1ccc(CCNC(=O)c2ccc(-c3ccc(Cl)cc3)[nH]2)cc1` [Compound 14]: the IC50 is above 50 µM.
Regarding `Cc1nc(C(NC(=O)c2ccc(-c3ccc(Cl)cc3)[nH]2)C2CCCCN2)sc1CCCO` (stereo not drawn) [Compound 32], 7.6 ± 0.8 µM corresponded to half-maximal inhibition (IC50).
`CNc1cc(NC(=O)c2ccc(-c3ccc(F)c(Cl)c3)[nH]2)nc(NC(=N)N)n1` [Compound 53] came in with an IC50 above 36 µM.
Same read-out and setting: the same measure for `Cc1nc(C(CN)NC(=O)c2cc3cc(Cl)ccc3[nH]2)sc1CO` (stereo not drawn) [Compound 60]: above 40 µM; for `Cc1nc(C(CN)NC(=O)c2cc3ccccc3[nH]2)sc1CO` (stereo not drawn) [Compound 62]: above 60 µM.
The compound `CC(=O)NCC(NC(=O)c1ccc(-c2ccc(Cl)c(F)c2)[nH]1)c1nc(C)c(CO)s1` (stereo not drawn) [Compound 64] came in with an IC50 of around 40 µM.
Turning to `Cc1nc(C(CN(C)C)NC(=O)c2ccc(-c3ccc(Cl)cc3)[nH]2)sc1CO` (stereo not drawn) [Compound 66], the midpoint of inhibition, the IC50, lay at 16.5 ± 3.4 µM.
For `CC(=O)NCC(NC(=O)c1ccc(-c2ccc(Cl)c(F)c2)[nH]1)c1nc(C)c(COC(C)=O)s1` (stereo not drawn) [Compound 70], the IC50 was above 40 µM.
Same read-out and setting: in the case of `Cc1nc(C(CN(C)C)NC(=O)c2ccc(-c3ccc(Cl)c(F)c3)[nH]2)sc1CO` (stereo not drawn) [Compound 71] it was 3.6 ± 1 µM; in that of `Cc1cc(-c2ccc(Cl)cc2)[nH]c1C(=O)NC(CN)c1nc(C)c(CO)s1` (stereo not drawn) [Compound 73], 2.2 ± 0.8 µM.
In the case of `Cc1ccc(-c2ccc(C(=O)NC(CCN(C)C)c3nc(C)c(CO)s3)[nH]2)cc1F` (stereo not drawn) [Compound 76], the IC50 came out at 11 ± 2.5 µM.
`Cc1nc(C(CCN(C)C)NC(=O)c2ccc(-c3ccc(Cl)cc3)[nH]2)sc1CO` (stereo not drawn) [Compound 80] displayed an IC50 of 14.2 ± 0.7 µM.
The compound `Cc1nc(C(CCN)NC(=O)c2ccc(-c3ccc(Cl)c(F)c3)[nH]2)sc1CO` (stereo not drawn) [Compound 90] displayed an IC50 of 4.1 ± 1.5 µM.
`NCC(NC(=O)c1ccc(-c2ccc(Cl)c(F)c2)[nH]1)c1ncc(CO)s1` (stereo not drawn) [Compound 94]: the IC50 was 1.1 ± 0.8 µM.
As to `Cc1nc(C(CN)NC(=O)c2cnc(-c3ccc(Cl)cc3)[nH]2)sc1CO` (stereo not drawn) [Compound 97], the IC50 was above 51 µM.
The same measure, in the same setting: in the case of `Cc1nc(C(CN)NC(=O)c2ncc(-c3ccc(Cl)cc3)[nH]2)sc1CO` (stereo not drawn) [Compound 99] it was 34.9 ± 3 µM.
The compound `Cc1cc(C(=O)NC(CN)c2nc(C)c(CO)s2)[nH]c1-c1ccc(Cl)cc1` (stereo not drawn) [Compound 101] returned an IC50 of 3.6 ± 0.4 µM.

The series is the same for the next values; noted with them: TZM-bl cells, HIV-1 pseudovirus with HXB2 Env.
For `Cc1nc(C(CN)NC(=O)c2cc3cc(Cl)ccc3[nH]2)sc1CO` (stereo not drawn) [Compound 61], the 50% inhibitory concentration (IC50) is around 50 µM.
The compound `Cc1nc(C(CN)NC(=O)c2cc3ccccc3[nH]2)sc1CO` (stereo not drawn) [Compound 63] returned an IC50 above 60 µM.
As for `CC(=O)NCC(NC(=O)c1ccc(-c2ccc(Cl)c(F)c2)[nH]1)c1nc(C)c(CO)s1` (stereo not drawn) [Compound 65], the IC50 is around 40 µM.
On to `Cc1nc(C(CN)NC(=O)c2cnc(-c3ccc(Cl)cc3)[nH]2)sc1CO` (stereo not drawn) [Compound 98], for which the IC50 is above 51 µM.

Tested on in another series: not listed separately
Kind of series: Cytotoxicity in TZM-bl cells (XTT). As to conditions: human. The series is classed as cell-based. How it is done:
(§1) The cytotoxicity of test compounds in TZM-bl cells was also measured by the XTT method described previously^7. […] The soluble intracellular formazan was quantitated colorimetrically at 450 nm 4 h later. The percent of cytotoxicity and the CC50 values were calculated as above. (See Table 4)
Consider `Cc1nc(C(CN)NC(=O)c2cc3cc(Cl)ccc3[nH]2)sc1CO` (stereo not drawn) [Compound 60], for which the CC50 at 3 days is around 47 µM.
Consider `Cc1nc(C(CN)NC(=O)c2cc3ccccc3[nH]2)sc1CO` (stereo not drawn) [Compound 62], for which the CC50 at 3 days was above 60 µM.

In a further series the test system is TZM-bl cells. The series is described as follows: Cytotoxicity in TZM-bl cells (XTT). The series is classed as cell-based. As to conditions: 3 days. How it is done: as §1
On to `Cc1nc(C(CN)NC(=O)c2cc3cc(Cl)ccc3[nH]2)sc1CO` (stereo not drawn) [Compound 61], for which the CC50 was above 55 µM.
`Cc1nc(C(CN)NC(=O)c2cc3ccccc3[nH]2)sc1CO` (stereo not drawn) [Compound 63] showed a CC50 above 60 µM.
